In PMC6089346 (Journal of the American Chemical Society, 2015):

Experiments:
human PARG [1] = target: human PARG (Homo sapiens, UniProt Q86W56, E755N); assay: fluorescence polarization direct binding
human PARG [2] = target: human PARG (Homo sapiens, UniProt Q86W56, E756N); assay: fluorescence polarization direct binding
Chain of human PARG (Homo sapiens, UniProt Q86W56, E756N) (Q86W56 whole entry E756N): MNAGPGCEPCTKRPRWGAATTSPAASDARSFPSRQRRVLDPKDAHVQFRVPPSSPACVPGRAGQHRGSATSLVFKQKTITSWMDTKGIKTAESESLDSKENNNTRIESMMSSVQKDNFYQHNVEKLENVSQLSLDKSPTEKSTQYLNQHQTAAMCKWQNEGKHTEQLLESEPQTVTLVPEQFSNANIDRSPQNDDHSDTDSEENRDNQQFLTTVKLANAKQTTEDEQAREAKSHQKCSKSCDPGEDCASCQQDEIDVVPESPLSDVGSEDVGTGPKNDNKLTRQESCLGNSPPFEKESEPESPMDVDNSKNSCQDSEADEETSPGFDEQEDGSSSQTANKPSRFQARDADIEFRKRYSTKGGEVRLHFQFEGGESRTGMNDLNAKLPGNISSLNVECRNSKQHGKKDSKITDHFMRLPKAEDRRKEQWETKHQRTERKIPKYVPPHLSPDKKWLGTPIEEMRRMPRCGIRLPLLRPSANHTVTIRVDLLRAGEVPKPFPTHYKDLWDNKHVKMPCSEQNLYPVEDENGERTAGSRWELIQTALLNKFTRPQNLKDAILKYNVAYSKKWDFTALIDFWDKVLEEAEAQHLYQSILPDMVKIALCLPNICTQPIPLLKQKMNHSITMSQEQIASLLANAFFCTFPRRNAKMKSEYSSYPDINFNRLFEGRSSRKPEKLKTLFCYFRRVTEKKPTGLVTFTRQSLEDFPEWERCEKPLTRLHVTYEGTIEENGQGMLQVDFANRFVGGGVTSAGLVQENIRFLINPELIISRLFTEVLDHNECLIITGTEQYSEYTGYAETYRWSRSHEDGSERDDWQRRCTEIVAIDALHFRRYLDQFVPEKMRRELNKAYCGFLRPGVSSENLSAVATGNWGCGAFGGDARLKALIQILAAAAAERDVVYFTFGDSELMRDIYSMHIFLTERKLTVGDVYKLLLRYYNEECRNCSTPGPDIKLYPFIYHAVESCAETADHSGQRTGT

Chain of human PARG (Homo sapiens, UniProt Q86W56, E755N) (Q86W56 whole entry E755N): as the sequence (Q86W56 whole entry E756N) above, with E755N, N756E counted along it

Substance: Cy3 ADP-ribose dimer [compound 22]
- Kd (human PARG [1]): 208 ± 14 nM
- Kd (human PARG [2]): 83 ± 7 nM
